This experiment addresses T1, tubulin.
T1 construct: purified tubulin (alpha/beta heterodimer)
The experiment is described as follows: tryptophan fluorescence quenching titration; competition with BODIPY FL-vinblastine (Ki […]). It counts as binding.

For orientation: Kd means the constant that tells how readily two partners part at equilibrium. High values mean lower affinity, low ones higher affinity.

The structures appear in SMILES notation.

Consider `O=C1NC(=S)S/C1=C\c1ccc(-c2ccc(Br)c(Cl)c2)o1` [BCFMT, (Z)-5-((5-(4-bromo-3-chlorophenyl)furan-2-yl)methylene)-2-thioxothiazolidin-4-one], for which the Kd came to 8.3 ± 1.8 µM.

The values are drawn from paper PMC3432122, “An Antitubulin Agent BCFMT Inhibits Proliferation of Cancer Cells and Induces Cell Death by Inhibiting Microtubule Dynamics” (PLoS ONE, 2012).
